Measured values from BindingDB's records for PubMed 35429911 (Univ. Lille, 2022).

Biological target: Programmed cell death 1 ligand/protein 1 (Homo sapiens, UniProt Q9NZQ7+Q15116)
Test: Inhibition of human PD-1/PD-L1 interaction in CHO-K1 cells transfected with PD-1-YFP/SHP-2-CFP and measured by FRET assay

Sequence of Programmed cell death 1 ligand/protein 1 (Q9NZQ7 whole entry): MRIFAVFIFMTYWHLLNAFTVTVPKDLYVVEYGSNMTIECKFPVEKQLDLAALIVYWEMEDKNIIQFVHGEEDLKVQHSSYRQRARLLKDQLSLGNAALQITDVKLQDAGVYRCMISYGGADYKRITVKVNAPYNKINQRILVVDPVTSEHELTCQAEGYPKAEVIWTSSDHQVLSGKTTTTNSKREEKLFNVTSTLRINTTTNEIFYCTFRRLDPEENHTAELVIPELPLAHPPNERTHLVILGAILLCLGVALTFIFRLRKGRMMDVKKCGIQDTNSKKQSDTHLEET
Sequence of Programmed cell death 1 ligand/protein 1 (Q15116 whole entry): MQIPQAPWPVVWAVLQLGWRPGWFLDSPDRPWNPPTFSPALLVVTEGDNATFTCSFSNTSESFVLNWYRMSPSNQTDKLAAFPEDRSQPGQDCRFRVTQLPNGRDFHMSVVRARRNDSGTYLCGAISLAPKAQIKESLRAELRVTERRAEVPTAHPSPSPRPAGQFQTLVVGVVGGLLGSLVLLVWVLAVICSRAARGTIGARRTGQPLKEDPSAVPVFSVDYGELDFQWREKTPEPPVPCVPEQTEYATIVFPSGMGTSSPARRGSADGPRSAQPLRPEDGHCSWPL

Row | SMILES | IC50
1 | COc1ccccc1C1=NN(c2ccccn2)C(=O)C1 | 7 nM
2 | COc1ccc(C2=NN(c3ccccn3)C(=O)C2)cc1 | 17 nM
